Results on 2 compounds are retold here after ChEMBL document CHEMBL3745684, “Synthesis of a norcantharidin-tethered guanosine: Protein phosphatase-1 inhibitors that change alternative splicing” (Bioorg Med Chem Lett, 2016).

Assay type in all cases: cell-based
Test [1] concerns HEK293. As to the kind of experiment: Inhibition of protein phosphatase-1 in human HEK293 cells assessed as increase in exon 7 inclusion in the survival of motor neuron 2 gene after 14 to 16 hrs by RT-PCR analysis.
The test system of test [2] is HEK293. As to the kind of experiment: Inhibition of protein phosphatase-1 in human HEK293 cells assessed as increase in exon 7 inclusion in the survival of motor neuron 2 gene at 10 to 100 uM after 14 to 16 hrs by RT-PCR analysis.
Test [3] concerns HEK293. In words: Inhibition of protein phosphatase-1 in human HEK293 cells assessed as exon 7 inclusion in the survival of motor neuron 2 gene at 1 to 100 uM after 14 to 16 hrs by RT-PCR analysis.

The source made the active and inactive calls. The rule behind the calls is not given here.

With `CO[C@@H]1[C@H](OP(=O)(O)OCCc2ccc(CCN(C)C(=O)[C@H]3[C@@H](C(=O)O)[C@@H]4CC[C@H]3O4)cc2)[C@@H](CO)O[C@H]1n1cnc2c(=O)[nH]c(N)nc21` (mixture of isomers), the Activity result was “Dose-dependent effect” with HEK293 [1] and 25% in the test with HEK293 [2]. With `CNCCc1ccc(CCO)cc1`, in the test with HEK293 [3], the inhibition entry was “inactive”.
